How the values were obtained:
[1] = molecular target: T1, apelin receptor (APJ) (Homo sapiens, UniProt P35414); test: in vitro apelin agonist activity (methods of Giddings et al., Apelin-13 as positive control); assay type: cell-based; conditions: apelin agonist activity, Giddings et al. method; read-out: agonist activity (EC50)
T1 sequence (P35414 1-380): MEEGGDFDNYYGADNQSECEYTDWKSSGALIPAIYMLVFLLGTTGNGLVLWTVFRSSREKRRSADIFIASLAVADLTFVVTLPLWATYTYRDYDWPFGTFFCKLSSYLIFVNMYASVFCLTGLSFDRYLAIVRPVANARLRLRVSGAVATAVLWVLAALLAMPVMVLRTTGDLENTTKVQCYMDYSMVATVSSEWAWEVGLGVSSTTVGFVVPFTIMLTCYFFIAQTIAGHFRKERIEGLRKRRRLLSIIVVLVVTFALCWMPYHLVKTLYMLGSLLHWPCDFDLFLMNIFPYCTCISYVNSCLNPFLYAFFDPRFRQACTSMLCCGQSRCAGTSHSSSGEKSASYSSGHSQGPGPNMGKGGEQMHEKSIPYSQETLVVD
Description: The compounds above were studied for their in vitro activity as apelin agonists using the methods described by Giddings et al. Giddings et al., 2010 Int J High Thro Screen. 1:39-47, the contents of which are hereby incorporated by reference in its entirety.

[2] = test system: C57BL/6 mice; test: in vivo blood pressure lowering activity, non-invasive blood pressure and heart rate after IP injection; set-up: Systolic Baseline / Diastolic Baseline: unit not given here; conditions: for Diastolic Baseline / HR Baseline / Mean pressure Baseline / Systolic Baseline: baseline before dosing; for Diastolic % change / HR % change / Mean pressure % change / Systolic % change: postdose vs baseline; for HR Postdose: in bpm (unit assumed); for Diastolic Postdose / Mean pressure Postdose / Systolic Postdose: in mmHg (unit assumed)
Protocol: The compounds were also assayed for blood pressure activity using C57BL/6 mice and the procedure described by Tatemoto et al. The novel peptide apelin lowers blood pressure via a nitric oxide-dependent mechanism. Regul Pept. 2001; 99: 87-92. […] Studies have been published citing reductions in blood pressure occur following peptide apelin administration. Apelin-13 was used as a positive control. Knockout C57BL/6 mice lacking APJ have cardiovascular deficiencies. […] Charo et al. Am J Physiol Heart Circ Physiol. 2009 November 297(5):[…] et al. J Physiol Biochem. 2007 December; 63(4):359-73. Blood pressure measurements in these species of mice have been reported in the literature. […] et al. Am J Physiol Heart Circ Physiol. 2003 February; 284(2):[…]-74. On the first day of the study, 11 animals were treated with apelin-13, 11 with vehicle alone, and 11 as sham controls. The two later groups were used to determine effects (if any) of the vehicle or injection alone on blood pressure (BP). The experiment was conducted as follows: The animals were restrained and a baseline measurement taken for 5 min. Animals were injected and immediately monitored for 15 minutes. The effect of test agents should be apparent within this time. Tatemoto et al. reported that the effects of Apelin-13 were apparent within minutes. Tatemoto et al. 2001 Immediately following dosing, blood pressure (diastolic, systolic and mean pressure) and heart rate for each animal was recorded for up to 15 minutes using a Kent Scientific CODA Non-Invasive Blood Pressure System. […] On day 2-5 a similar protocol was used in increasing doses. The animals were randomized daily in three groups of 11 to receive either of the two experimental compounds by IP injection. […] At the end of the 5-day dosing period, all animals were humanely euthanized. [table]

COc1cccc(OC)c1-c1cc(C(=O)N[C@H](CC(=O)NC2CCC2)CC(C)C)nn1CC(C)C [compound 173]
EC50 [1]: < 10 µM
Diastolic Baseline ([2]; Day 2, 1 mg/kg IP): 114
HR Baseline ([2]; Day 2, 1 mg/kg IP): 681
Mean pressure Baseline ([2]; Day 2, 1 mg/kg IP): 126
Systolic Baseline ([2]; Day 2, 1 mg/kg IP): 151
Diastolic % change ([2]; Day 2, 1 mg/kg IP): 3%
HR % change ([2]; Day 2, 1 mg/kg IP): 5%
Mean pressure % change ([2]; Day 2, 1 mg/kg IP): 1%
Systolic % change ([2]; Day 2, 1 mg/kg IP): −1%
HR Postdose ([2]; Day 2, 1 mg/kg IP): 716
Diastolic Postdose ([2]; Day 2, 1 mg/kg IP): 118
Mean pressure Postdose ([2]; Day 2, 1 mg/kg IP): 128
Systolic Postdose ([2]; Day 2, 1 mg/kg IP): 149
Diastolic Baseline ([2]; Day 3, 3 mg/kg IP): 127
HR Baseline ([2]; Day 3, 3 mg/kg IP): 661
Mean pressure Baseline ([2]; Day 3, 3 mg/kg IP): 136
Systolic Baseline ([2]; Day 3, 3 mg/kg IP): 156
Diastolic % change ([2]; Day 3, 3 mg/kg IP): 2%
HR % change ([2]; Day 3, 3 mg/kg IP): 12%
Mean pressure % change ([2]; Day 3, 3 mg/kg IP): 2%
Systolic % change ([2]; Day 3, 3 mg/kg IP): 2%
HR Postdose ([2]; Day 3, 3 mg/kg IP): 738
Diastolic Postdose ([2]; Day 3, 3 mg/kg IP): 129
Mean pressure Postdose ([2]; Day 3, 3 mg/kg IP): 139
Systolic Postdose ([2]; Day 3, 3 mg/kg IP): 159
Diastolic Baseline ([2]; Day 4, 10 mg/Kg IP): 114.9
HR Baseline ([2]; Day 4, 10 mg/Kg IP): 682.5
Mean pressure Baseline ([2]; Day 4, 10 mg/Kg IP): 126.3
Systolic Baseline ([2]; Day 4, 10 mg/Kg IP): 150.5
Diastolic % change ([2]; Day 4, 10 mg/Kg IP): 4%
HR % change ([2]; Day 4, 10 mg/Kg IP): 10%
Mean pressure % change ([2]; Day 4, 10 mg/Kg IP): 2%
Systolic % change ([2]; Day 4, 10 mg/Kg IP): 0%
HR Postdose ([2]; Day 4, 10 mg/Kg IP): 749.4
Diastolic Postdose ([2]; Day 4, 10 mg/Kg IP): 119.3
Mean pressure Postdose ([2]; Day 4, 10 mg/Kg IP): 129.2
Systolic Postdose ([2]; Day 4, 10 mg/Kg IP): 150
Diastolic Baseline ([2]; Day 5, 30 mg/Kg IP): 122.2
HR Baseline ([2]; Day 5, 30 mg/Kg IP): 701.1
Mean pressure Baseline ([2]; Day 5, 30 mg/Kg IP): 133
Systolic Baseline ([2]; Day 5, 30 mg/Kg IP): 155.7
Diastolic % change ([2]; Day 5, 30 mg/Kg IP): −4%
HR % change ([2]; Day 5, 30 mg/Kg IP): 3%
Mean pressure % change ([2]; Day 5, 30 mg/Kg IP): −4%
Systolic % change ([2]; Day 5, 30 mg/Kg IP): −5%
HR Postdose ([2]; Day 5, 30 mg/Kg IP): 721.7
Diastolic Postdose ([2]; Day 5, 30 mg/Kg IP): 117.5
Mean pressure Postdose ([2]; Day 5, 30 mg/Kg IP): 127.4
Systolic Postdose ([2]; Day 5, 30 mg/Kg IP): 148.2

CCCCNC(=O)C[C@H](CC(C)C)NC(=O)c1cc(-c2c(OC)cccc2OC)n(CC(C)C)n1 [compound 143, (S)-N-(1-(Butylamino)-5-methyl-1-oxohexan-3-yl)-5-(2,6-dimethoxyphenyl)-1-isobutyl-1H-pyrazole-3-carboxamide]
EC50 [1]: < 10 µM
Diastolic Baseline ([2]; Day 2, 1 mg/kg IP): 127
HR Baseline ([2]; Day 2, 1 mg/kg IP): 706
Mean pressure Baseline ([2]; Day 2, 1 mg/kg IP): 138
Systolic Baseline ([2]; Day 2, 1 mg/kg IP): 161
Diastolic % change ([2]; Day 2, 1 mg/kg IP): 1%
HR % change ([2]; Day 2, 1 mg/kg IP): 3%
Mean pressure % change ([2]; Day 2, 1 mg/kg IP): 0%
Systolic % change ([2]; Day 2, 1 mg/kg IP): −1%
HR Postdose ([2]; Day 2, 1 mg/kg IP): 727
Diastolic Postdose ([2]; Day 2, 1 mg/kg IP): 129
Mean pressure Postdose ([2]; Day 2, 1 mg/kg IP): 139
Systolic Postdose ([2]; Day 2, 1 mg/kg IP): 160
Diastolic Baseline ([2]; Day 3, 3 mg/kg IP): 132
HR Baseline ([2]; Day 3, 3 mg/kg IP): 665
Mean pressure Baseline ([2]; Day 3, 3 mg/kg IP): 142
Systolic Baseline ([2]; Day 3, 3 mg/kg IP): 163
Diastolic % change ([2]; Day 3, 3 mg/kg IP): −4%
HR % change ([2]; Day 3, 3 mg/kg IP): 15%
Mean pressure % change ([2]; Day 3, 3 mg/kg IP): −4%
Systolic % change ([2]; Day 3, 3 mg/kg IP): −3%
HR Postdose ([2]; Day 3, 3 mg/kg IP): 763
Diastolic Postdose ([2]; Day 3, 3 mg/kg IP): 127
Mean pressure Postdose ([2]; Day 3, 3 mg/kg IP): 137
Systolic Postdose ([2]; Day 3, 3 mg/kg IP): 158
Diastolic Baseline ([2]; Day 4, 10 mg/Kg IP): 131.3
HR Baseline ([2]; Day 4, 10 mg/Kg IP): 669.3
Mean pressure Baseline ([2]; Day 4, 10 mg/Kg IP): 143
Systolic Baseline ([2]; Day 4, 10 mg/Kg IP): 167.5
Diastolic % change ([2]; Day 4, 10 mg/Kg IP): −5%
HR % change ([2]; Day 4, 10 mg/Kg IP): 11%
Mean pressure % change ([2]; Day 4, 10 mg/Kg IP): −6%
Systolic % change ([2]; Day 4, 10 mg/Kg IP): −6%
HR Postdose ([2]; Day 4, 10 mg/Kg IP): 745
Diastolic Postdose ([2]; Day 4, 10 mg/Kg IP): 124.2
Mean pressure Postdose ([2]; Day 4, 10 mg/Kg IP): 134.8
Systolic Postdose ([2]; Day 4, 10 mg/Kg IP): 157.1
Diastolic Baseline ([2]; Day 5, 30 mg/Kg IP): 130
HR Baseline ([2]; Day 5, 30 mg/Kg IP): 733.9
Mean pressure Baseline ([2]; Day 5, 30 mg/Kg IP): 141
Systolic Baseline ([2]; Day 5, 30 mg/Kg IP): 164.1
Diastolic % change ([2]; Day 5, 30 mg/Kg IP): −9%
HR % change ([2]; Day 5, 30 mg/Kg IP): −2%
Mean pressure % change ([2]; Day 5, 30 mg/Kg IP): −9%
Systolic % change ([2]; Day 5, 30 mg/Kg IP): −8%
HR Postdose ([2]; Day 5, 30 mg/Kg IP): 722.8
Diastolic Postdose ([2]; Day 5, 30 mg/Kg IP): 118.8
Mean pressure Postdose ([2]; Day 5, 30 mg/Kg IP): 128.9
Systolic Postdose ([2]; Day 5, 30 mg/Kg IP): 150.2
